Assay [1] concerns the target T1, AT1 S107A mutant receptor (Rattus norvegicus, UniProt P25095, S107A).
T1 construct: expressed in transfected cells; host or cells: COS1
T1 sequence (P25095 1-359 S107A): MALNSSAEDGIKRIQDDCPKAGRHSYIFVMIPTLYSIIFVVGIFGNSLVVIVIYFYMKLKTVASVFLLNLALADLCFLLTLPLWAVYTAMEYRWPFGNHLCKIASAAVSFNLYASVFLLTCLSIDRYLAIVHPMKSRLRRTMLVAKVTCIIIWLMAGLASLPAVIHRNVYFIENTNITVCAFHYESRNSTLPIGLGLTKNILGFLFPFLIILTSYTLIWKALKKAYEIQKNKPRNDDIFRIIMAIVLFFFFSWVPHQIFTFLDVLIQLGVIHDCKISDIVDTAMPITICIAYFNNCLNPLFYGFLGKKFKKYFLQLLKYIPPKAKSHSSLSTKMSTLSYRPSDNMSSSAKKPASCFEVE
Nature of the assay: competition binding, S107A mutant. As to conditions: for Kd ratio relative to WT (in parentheses): S107A / WT; for Kd: S107A, COS1 membranes, read-out: Binding affinity (Kd). The method, then: (§1) The Kd and Bmax values of receptor binding were determined by ^125I-[Sar^1, Ile^8] […] Membranes expressing the WT or mutant AT1 receptors were incubated with 100 pM ^125I-[Sar^1, Ile^8] […] The binding reaction was terminated by filtering the incubation mixture through Whatman GF/C glass filters, and the residues were extensively washed further with binding buffer. The bound ligand fraction was determined from the counts per minute (cpm) remaining on the membrane. Binding kinetics values were determined as previously described.

Assay [2] has as its target T2, AT1 C76A/C289A mutant receptor (Rattus norvegicus, UniProt P25095, C289A/C76A).
T2 construct: expressed in transfected cells; host or cells: COS1
T2 sequence (P25095 1-359 C76A/C289A): T1 sequence (P25095 1-359 S107A) with C76A, A107S, C289A
Put plainly: competition binding, C76A/C289A mutant. Conditions: for Kd ratio relative to WT (in parentheses): C76A/C289A / WT; for Kd: C76A/C289A, COS1 membranes, read-out: Binding affinity (Kd). The protocol: as §1

For assay [3], the target named is T3, AT1 C76A/L112C/C289A mutant receptor (Rattus norvegicus, UniProt P25095, C289A/C76A/L112C).
T3 construct: expressed in transfected cells; host or cells: COS1
T3 sequence (P25095 1-359 C76A/L112C/C289A): T1 sequence (P25095 1-359 S107A) with C76A, A107S, L112C, C289A
Nature of the assay: competition binding, C76A/L112C/C289A mutant. As to conditions: for Kd ratio relative to WT (in parentheses): C76A/L112C/C289A / WT; for Kd: C76A/L112C/C289A, COS1 membranes, read-out: Binding affinity (Kd). The method, then: as §1

For assay [4], the target named is T4, AT1 V108A mutant receptor (Rattus norvegicus, UniProt P25095, V108A).
T4 construct: expressed in transfected cells; host or cells: COS1
T4 sequence (P25095 1-359 V108A): T1 sequence (P25095 1-359 S107A) with A107S, V108A
Nature of the assay: competition binding, V108A mutant. As to conditions: for Kd ratio relative to WT (in parentheses): V108A / WT; for Kd: V108A, COS1 membranes, read-out: Binding affinity (Kd). The protocol:
as §1

Assay [5] concerns the target T5, AT1 C76A/N111C/C289A mutant receptor (Rattus norvegicus, UniProt P25095, C289A/C76A/N111C).
T5 construct: expressed in transfected cells; host or cells: COS1
T5 sequence (P25095 1-359 C76A/N111C/C289A): T1 sequence (P25095 1-359 S107A) with C76A, A107S, N111C, C289A
Nature of the assay: competition binding, C76A/N111C/C289A mutant. Conditions: for Kd ratio relative to WT (in parentheses): C76A/N111C/C289A / WT; for Kd: C76A/N111C/C289A, COS1 membranes, read-out: Binding affinity (Kd). The protocol:
as §1

In assay [6] the target is T6, AT1 F110A mutant receptor (Rattus norvegicus, UniProt P25095, F110A).
T6 construct: expressed in transfected cells; host or cells: COS1
T6 sequence (P25095 1-359 F110A): T1 sequence (P25095 1-359 S107A) with A107S, F110A
Nature of the assay: competition binding, F110A mutant. Conditions: for Kd ratio relative to WT (in parentheses): F110A / WT; for Kd: F110A, COS1 membranes, read-out: Binding affinity (Kd). The protocol:
as §1

The text below walks through data of PMC3375280 (PLoS ONE, 2012).

Each structure is given as a SMILES string. Changes are numbered by the printed parent chain.

One may read the Kd as the equilibrium constant for the complex coming apart. In the case of `CCCc1nc(C(C)(C)O)c(C(=O)O)n1Cc1ccc(-c2ccccc2-c2nnn[nH]2)cc1` [Olmesartan, olmesartan, reference compound], the “Kd ratio relative to WT (in parentheses)” value in assay [1] turned out to be 1.1 fold; in assay [2] it was 2.5 fold; in assay [3], 2.7 fold; in assay [4], 2.1 fold; in assay [5] it was 5.2 fold; in assay [6] it was 1.1 fold. In addition, the Kd is 2.5 ± 0.5 nM in assay [1]; 5.7 ± 1.6 nM in assay [2]; 6.1 ± 2.1 nM in assay [3]; 4.8 ± 2 nM in assay [4]; 12 ± 4 nM in assay [5]; 2.6 ± 0.5 nM in assay [6].

`CCCc1nc(C(C)(C)O)c(C(N)=O)n1Cc1ccc(-c2ccccc2-c2nnn[nH]2)cc1` [R239470]: the “Kd ratio relative to WT (in parentheses)” value in assay [1] came to 1.6 fold; in assay [2] it was 3.0 fold; in assay [3] it was 4.0 fold; in assay [4], 2.0 fold; in assay [5], 6.8 fold; in assay [6], 1.5 fold. Besides, the Kd came to 1.3 ± 0.2 nM in assay [1]; 2.4 ± 0.5 nM in assay [2]; 3.2 ± 1.3 nM in assay [3]; 1.6 ± 0.8 nM in assay [4]; 5.4 ± 3 nM in assay [5]; 1.2 ± 0.3 nM in assay [6].

As to `CCCc1nc(C(C)(C)O)c(C(N)=O)n1Cc1ccc(-c2cc(Cc3ccc(O)cc3)ccc2-c2nnn[nH]2)cc1` [R794847], the “Kd ratio relative to WT (in parentheses)” value in assay [1] turned out to be 1.2 fold; in assay [2], 1.5 fold; in assay [3], 1.3 fold; in assay [4], 51 fold; in assay [5], 3.8 fold; in assay [6], 1.4 fold. Further, the Kd was determined as 59 ± 27 nM in assay [1]; 73 ± 20 nM in assay [2]; 62 ± 9 nM in assay [3]; 2450 ± 1310 nM in assay [4]; 180 ± 94 nM in assay [5]; 68 ± 19 nM in assay [6].
